Measurements from ChEMBL document CHEMBL2401692, “Synthesis, structure-activity relationships, and in vivo efficacy of the novel potent and selective anaplastic lymphoma kinase (ALK) inhibitor 5-chloro-N2-(2-isopropoxy-5-methyl-4-(piperidin-4-yl)phenyl)-N4-(2-(isopropylsulfonyl)phenyl)pyrimidine-2,4-diamine (LDK378) currently in phase 1 and phase …” (J Med Chem, 2013).
In brackets after ≈: the same amount, converted by molar mass.

Key:
Rattus norvegicus = experiment: Toxicity in po dosed Rowett nude rat xenografted with human NCI-H2228 cells assessed as body weight loss at 5 to 25 mg/kg, po; assay type: organism-based; parameters: dose 5-25 mg/kg, route oral; conditions: in vivo
[1] = Toxicity in po dosed Rowett nude rat xenografted with human NCI-H2228 cells; assay type: organism-based; conditions: in vivo
[2] = Toxicity in po dosed Rowett nude rat xenografted with human KARPAS299 cells; assay type: organism-based, KARPAS-299; conditions: in vivo
NCI-H2228 = experiment: Antitumor activity against human NCI-H2228 cells xenografted in Rowett nude rat assessed as complete tumor regression at 25 mg/kg, po for 14 days measured 7 to 72 hrs post dosing relative to control; assay type: functional
KARPAS-299 [3] = experiment: Antitumor activity against human KARPAS299 cells xenografted in Rowett nude rat assessed as tumor regression at 50 mg/kg, po for 14 days measured 7 to 72 hrs post dosing relative to control; assay type: functional
KARPAS-299 [4] = experiment: Antitumor activity against human KARPAS299 cells xenografted in Rowett nude rat assessed as tumor regression at 25 mg/kg, po for 14 days measured 7 to 72 hrs post dosing relative to control; assay type: functional
KARPAS-299 [5] = experiment: Antitumor activity against human KARPAS299 cells xenografted in Rowett nude rat assessed as tumor growth inhibition factor at 6.25 mg/kg, po for 14 days measured 7 to 72 hrs post dosing relative to control; assay type: functional
[6] = Oral bioavailability in cynomolgus monkey at 60 mg/kg; assay type: ADME, organism-based, Macaca fascicularis; conditions: in vivo
[7] = AUC in cynomolgus monkey at 60 mg/kg, po; assay type: ADME, organism-based, Macaca fascicularis; parameters: dose 60 mg/kg, route oral; conditions: plasma
[8] = Cmax in cynomolgus monkey at 60 mg/kg, po; assay type: ADME, organism-based, Macaca fascicularis; parameters: dose 60 mg/kg, route oral; conditions: in vivo
[9] = Volume of distribution at steady state in cynomolgus monkey at 5 mg/kg, iv; assay type: ADME, organism-based, Macaca fascicularis; parameters: dose 5 mg/kg, route intravenous; conditions: in vivo, read-out: Vdss
[10] = AUC in cynomolgus monkey at 5 mg/kg, iv; assay type: ADME, organism-based, Macaca fascicularis; parameters: dose 5 mg/kg, route intravenous; conditions: plasma
[11] = Oral bioavailability in Beagle dog at 20 mg/kg; assay type: ADME, organism-based, Canis lupus familiaris; conditions: in vivo
[12] = Cmax in Beagle dog at 20 mg/kg, po; assay type: ADME, organism-based, Canis lupus familiaris; parameters: dose 20 mg/kg, route oral; conditions: in vivo
[13] = Half life in Beagle dog at 5 mg/kg, iv; assay type: ADME, organism-based, Canis lupus familiaris; parameters: dose 5 mg/kg, route intravenous; conditions: in vivo
[14] = Tmax in Beagle dog at 5 mg/kg, iv; assay type: ADME, organism-based, Canis lupus familiaris; parameters: dose 5 mg/kg, route intravenous; conditions: in vivo
[15] = Plasma clearance in Beagle dog at 5 mg/kg, iv; assay type: ADME, organism-based, Canis lupus familiaris; parameters: dose 5 mg/kg, route intravenous
[16] = Oral bioavailability in Sprague-Dawley rat at 10 mg/kg; assay type: ADME, organism-based; conditions: in vivo
[17] = Tmax in Sprague-Dawley rat at 10 mg/kg, po; assay type: ADME, organism-based; parameters: dose 10 mg/kg, route oral; conditions: in vivo
[18] = Half life in Sprague-Dawley rat at 3 mg/kg, iv; assay type: ADME, organism-based; parameters: dose 3 mg/kg, route intravenous; conditions: in vivo
[19] = AUC in Sprague-Dawley rat at 10 mg/kg, po; assay type: ADME, organism-based; parameters: dose 10 mg/kg, route oral; conditions: plasma
[20] = Plasma clearance in Sprague-Dawley rat at 3 mg/kg, iv; assay type: ADME, organism-based; parameters: dose 3 mg/kg, route intravenous
[21] = AUC in Sprague-Dawley rat at 3 mg/kg, iv; assay type: ADME, organism-based; parameters: dose 3 mg/kg, route intravenous; conditions: plasma
[22] = Half life in BALB/c mouse at 5 mg/kg, iv; assay type: ADME, organism-based; parameters: dose 5 mg/kg, route intravenous; conditions: in vivo
[23] = Volume of distribution at steady state in BALB/c mouse at 5 mg/kg, iv; assay type: ADME, organism-based; parameters: dose 5 mg/kg, route intravenous; conditions: in vivo, read-out: Vdss
[24] = Plasma clearance in BALB/c mouse at 5 mg/kg, iv; assay type: ADME, organism-based; parameters: dose 5 mg/kg, route intravenous
[25] = AUC in BALB/c mouse at 5 mg/kg, iv; assay type: ADME, organism-based; parameters: dose 5 mg/kg, route intravenous; conditions: plasma
[26] = molecular target: T1, Tyrosine-protein kinase Lck (Homo sapiens, UniProt P06239); experiment: Inhibition of TEL-fused LCK (unknown origin) by cell-based assay
T1 sequence (P06239 whole entry, the tested form may be a part): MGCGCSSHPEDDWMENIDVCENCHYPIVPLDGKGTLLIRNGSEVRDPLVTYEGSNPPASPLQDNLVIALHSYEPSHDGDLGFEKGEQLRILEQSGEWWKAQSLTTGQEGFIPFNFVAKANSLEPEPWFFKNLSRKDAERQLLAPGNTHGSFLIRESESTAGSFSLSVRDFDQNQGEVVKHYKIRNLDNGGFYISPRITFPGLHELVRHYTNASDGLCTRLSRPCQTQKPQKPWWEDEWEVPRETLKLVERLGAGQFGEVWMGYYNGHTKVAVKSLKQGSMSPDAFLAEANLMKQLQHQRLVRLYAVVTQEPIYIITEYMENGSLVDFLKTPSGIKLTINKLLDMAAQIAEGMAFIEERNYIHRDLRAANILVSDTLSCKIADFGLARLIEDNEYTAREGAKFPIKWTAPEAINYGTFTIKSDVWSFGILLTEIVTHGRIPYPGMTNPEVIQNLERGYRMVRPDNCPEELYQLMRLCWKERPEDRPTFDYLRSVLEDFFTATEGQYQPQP

[27] = molecular target: Vascular endothelial growth factor receptor 2 (Homo sapiens, UniProt P35968); experiment: Inhibition of TEL-fused KDR (unknown origin) by cell-based assay
Sequence of Vascular endothelial growth factor receptor 2 (P35968 20-1356 limits assumed): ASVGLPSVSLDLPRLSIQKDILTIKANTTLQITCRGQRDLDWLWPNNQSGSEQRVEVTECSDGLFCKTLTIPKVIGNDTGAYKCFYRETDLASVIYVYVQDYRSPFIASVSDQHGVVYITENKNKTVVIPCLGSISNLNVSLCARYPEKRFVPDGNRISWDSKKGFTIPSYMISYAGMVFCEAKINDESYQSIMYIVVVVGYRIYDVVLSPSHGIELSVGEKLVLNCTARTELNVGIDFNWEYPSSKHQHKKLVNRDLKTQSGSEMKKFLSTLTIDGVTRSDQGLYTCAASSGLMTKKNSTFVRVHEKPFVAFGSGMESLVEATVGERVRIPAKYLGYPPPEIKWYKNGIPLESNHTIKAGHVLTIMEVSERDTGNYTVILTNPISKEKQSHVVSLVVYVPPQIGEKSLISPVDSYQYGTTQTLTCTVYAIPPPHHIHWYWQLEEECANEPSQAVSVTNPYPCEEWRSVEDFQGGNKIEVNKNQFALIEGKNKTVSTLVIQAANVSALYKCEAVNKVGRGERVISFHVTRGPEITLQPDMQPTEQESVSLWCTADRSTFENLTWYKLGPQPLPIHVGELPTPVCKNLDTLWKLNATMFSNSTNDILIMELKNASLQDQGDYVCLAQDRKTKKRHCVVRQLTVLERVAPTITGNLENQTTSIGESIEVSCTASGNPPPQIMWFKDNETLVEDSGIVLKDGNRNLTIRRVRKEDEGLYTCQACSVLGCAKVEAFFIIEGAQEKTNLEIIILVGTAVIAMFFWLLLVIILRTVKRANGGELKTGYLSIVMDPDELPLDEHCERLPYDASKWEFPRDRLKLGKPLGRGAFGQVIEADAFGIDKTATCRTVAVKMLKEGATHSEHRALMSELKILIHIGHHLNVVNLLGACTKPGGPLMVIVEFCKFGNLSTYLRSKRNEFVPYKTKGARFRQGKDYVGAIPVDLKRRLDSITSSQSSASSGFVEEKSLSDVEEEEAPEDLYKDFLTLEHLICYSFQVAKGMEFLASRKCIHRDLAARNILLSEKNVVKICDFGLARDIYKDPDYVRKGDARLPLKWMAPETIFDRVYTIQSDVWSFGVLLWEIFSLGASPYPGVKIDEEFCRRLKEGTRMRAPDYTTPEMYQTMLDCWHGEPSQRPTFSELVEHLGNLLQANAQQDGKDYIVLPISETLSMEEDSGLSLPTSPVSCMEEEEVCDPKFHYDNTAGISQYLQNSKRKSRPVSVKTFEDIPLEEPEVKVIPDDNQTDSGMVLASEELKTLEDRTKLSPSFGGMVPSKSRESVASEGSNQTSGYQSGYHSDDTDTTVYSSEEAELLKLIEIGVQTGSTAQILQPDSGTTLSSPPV

[28] = molecular target: T2, Mast/stem cell growth factor receptor Kit (Homo sapiens, UniProt P10721); experiment: Inhibition of TEL-fused cKIT (unknown origin) by cell-based assay
T2 sequence (P10721 whole entry, the tested form may be a part): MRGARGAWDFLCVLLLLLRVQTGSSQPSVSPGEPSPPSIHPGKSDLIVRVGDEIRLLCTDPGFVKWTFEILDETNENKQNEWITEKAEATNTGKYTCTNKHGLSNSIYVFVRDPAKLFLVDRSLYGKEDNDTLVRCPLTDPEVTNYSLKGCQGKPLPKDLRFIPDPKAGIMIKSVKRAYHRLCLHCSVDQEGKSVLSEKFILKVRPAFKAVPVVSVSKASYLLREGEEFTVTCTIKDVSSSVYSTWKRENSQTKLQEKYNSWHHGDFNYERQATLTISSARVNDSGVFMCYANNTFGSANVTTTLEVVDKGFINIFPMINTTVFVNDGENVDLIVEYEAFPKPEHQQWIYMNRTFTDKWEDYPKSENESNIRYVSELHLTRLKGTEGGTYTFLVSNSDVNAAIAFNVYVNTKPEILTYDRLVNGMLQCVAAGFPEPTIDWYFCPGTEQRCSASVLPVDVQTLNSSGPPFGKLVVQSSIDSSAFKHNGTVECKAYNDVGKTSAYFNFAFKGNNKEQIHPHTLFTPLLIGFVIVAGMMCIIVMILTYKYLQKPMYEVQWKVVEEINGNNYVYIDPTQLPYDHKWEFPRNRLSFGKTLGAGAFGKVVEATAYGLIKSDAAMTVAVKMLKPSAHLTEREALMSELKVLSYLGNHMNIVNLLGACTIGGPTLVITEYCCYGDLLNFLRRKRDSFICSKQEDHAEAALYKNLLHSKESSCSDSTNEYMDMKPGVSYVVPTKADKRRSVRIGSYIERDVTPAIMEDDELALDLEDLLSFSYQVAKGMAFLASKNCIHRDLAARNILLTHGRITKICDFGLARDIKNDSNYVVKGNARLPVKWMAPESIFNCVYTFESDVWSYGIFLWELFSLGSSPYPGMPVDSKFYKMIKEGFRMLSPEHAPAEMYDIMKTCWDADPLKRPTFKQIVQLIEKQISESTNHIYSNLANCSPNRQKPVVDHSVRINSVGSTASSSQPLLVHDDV

[29] = molecular target: Tyrosine-protein kinase JAK2 (Homo sapiens, UniProt O60674); experiment: Inhibition of TEL-fused JAK2 (unknown origin) by cell-based assay
[30] = molecular target: Receptor-type tyrosine-protein kinase FLT3 (Homo sapiens, UniProt P36888); experiment: Inhibition of TEL-fused FLT3 (unknown origin) by cell-based assay
Sequence of Receptor-type tyrosine-protein kinase FLT3 (P36888 27-993 limits assumed): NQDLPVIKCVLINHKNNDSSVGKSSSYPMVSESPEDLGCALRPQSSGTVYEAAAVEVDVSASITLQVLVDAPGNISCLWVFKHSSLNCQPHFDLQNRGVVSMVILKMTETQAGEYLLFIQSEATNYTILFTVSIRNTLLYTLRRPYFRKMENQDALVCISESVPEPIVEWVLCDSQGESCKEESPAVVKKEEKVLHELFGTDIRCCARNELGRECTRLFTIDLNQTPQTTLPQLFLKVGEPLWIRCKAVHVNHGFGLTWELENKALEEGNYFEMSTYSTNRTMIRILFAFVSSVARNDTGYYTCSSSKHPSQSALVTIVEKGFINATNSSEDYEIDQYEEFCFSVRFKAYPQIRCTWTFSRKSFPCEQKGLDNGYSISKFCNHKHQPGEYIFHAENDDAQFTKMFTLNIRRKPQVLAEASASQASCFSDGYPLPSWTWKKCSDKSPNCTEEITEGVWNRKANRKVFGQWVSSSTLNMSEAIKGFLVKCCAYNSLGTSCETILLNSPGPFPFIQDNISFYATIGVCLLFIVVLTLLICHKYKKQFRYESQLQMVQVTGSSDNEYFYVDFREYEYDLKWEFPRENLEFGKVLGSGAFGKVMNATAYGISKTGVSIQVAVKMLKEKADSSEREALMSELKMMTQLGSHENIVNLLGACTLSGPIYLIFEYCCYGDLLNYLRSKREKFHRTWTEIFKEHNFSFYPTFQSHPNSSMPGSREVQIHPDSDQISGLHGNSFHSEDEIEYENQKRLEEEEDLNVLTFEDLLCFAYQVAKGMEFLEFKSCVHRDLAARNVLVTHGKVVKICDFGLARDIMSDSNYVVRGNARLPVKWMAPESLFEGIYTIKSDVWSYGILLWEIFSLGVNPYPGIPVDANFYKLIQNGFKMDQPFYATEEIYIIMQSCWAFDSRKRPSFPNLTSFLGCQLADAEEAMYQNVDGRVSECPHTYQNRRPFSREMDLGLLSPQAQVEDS

[31] = molecular target: Tyrosine-protein kinase ZAP-70 (Homo sapiens, UniProt P43403); experiment: Inhibition of ZAP70 (unknown origin) after 60 mins
[32] = molecular target: Tyrosine-protein kinase SYK (Homo sapiens, UniProt P43405); experiment: Inhibition of SYK (unknown origin) after 60 mins
[33] = molecular target: Rho-associated protein kinase 2 (Homo sapiens, UniProt O75116); experiment: Inhibition of ROCK2 (unknown origin) after 60 mins
[34] = molecular target: Platelet-derived growth factor receptor alpha (Homo sapiens, UniProt P16234); experiment: Inhibition of PDGFRalpha (unknown origin) after 60 mins
[35] = molecular target: MAP kinase-interacting serine/threonine-protein kinase 2 (Homo sapiens, UniProt Q9HBH9); experiment: Inhibition of MKNK2 (unknown origin) after 60 mins
[36] = molecular target: Tyrosine-protein kinase Lyn (Homo sapiens, UniProt P07948); experiment: Inhibition of LYN (unknown origin) after 60 mins
[37] = molecular target: T1, Tyrosine-protein kinase Lck; experiment: Inhibition of LCK (unknown origin) after 60 mins
[38] = molecular target: T2, Mast/stem cell growth factor receptor Kit; experiment: Inhibition of cKIT (unknown origin) after 60 mins
[39] = molecular target: Tyrosine-protein kinase JAK1 (Homo sapiens, UniProt P23458); experiment: Inhibition of JAK1 (unknown origin) after 60 mins
Sequence of Tyrosine-protein kinase JAK1 (P23458 whole entry): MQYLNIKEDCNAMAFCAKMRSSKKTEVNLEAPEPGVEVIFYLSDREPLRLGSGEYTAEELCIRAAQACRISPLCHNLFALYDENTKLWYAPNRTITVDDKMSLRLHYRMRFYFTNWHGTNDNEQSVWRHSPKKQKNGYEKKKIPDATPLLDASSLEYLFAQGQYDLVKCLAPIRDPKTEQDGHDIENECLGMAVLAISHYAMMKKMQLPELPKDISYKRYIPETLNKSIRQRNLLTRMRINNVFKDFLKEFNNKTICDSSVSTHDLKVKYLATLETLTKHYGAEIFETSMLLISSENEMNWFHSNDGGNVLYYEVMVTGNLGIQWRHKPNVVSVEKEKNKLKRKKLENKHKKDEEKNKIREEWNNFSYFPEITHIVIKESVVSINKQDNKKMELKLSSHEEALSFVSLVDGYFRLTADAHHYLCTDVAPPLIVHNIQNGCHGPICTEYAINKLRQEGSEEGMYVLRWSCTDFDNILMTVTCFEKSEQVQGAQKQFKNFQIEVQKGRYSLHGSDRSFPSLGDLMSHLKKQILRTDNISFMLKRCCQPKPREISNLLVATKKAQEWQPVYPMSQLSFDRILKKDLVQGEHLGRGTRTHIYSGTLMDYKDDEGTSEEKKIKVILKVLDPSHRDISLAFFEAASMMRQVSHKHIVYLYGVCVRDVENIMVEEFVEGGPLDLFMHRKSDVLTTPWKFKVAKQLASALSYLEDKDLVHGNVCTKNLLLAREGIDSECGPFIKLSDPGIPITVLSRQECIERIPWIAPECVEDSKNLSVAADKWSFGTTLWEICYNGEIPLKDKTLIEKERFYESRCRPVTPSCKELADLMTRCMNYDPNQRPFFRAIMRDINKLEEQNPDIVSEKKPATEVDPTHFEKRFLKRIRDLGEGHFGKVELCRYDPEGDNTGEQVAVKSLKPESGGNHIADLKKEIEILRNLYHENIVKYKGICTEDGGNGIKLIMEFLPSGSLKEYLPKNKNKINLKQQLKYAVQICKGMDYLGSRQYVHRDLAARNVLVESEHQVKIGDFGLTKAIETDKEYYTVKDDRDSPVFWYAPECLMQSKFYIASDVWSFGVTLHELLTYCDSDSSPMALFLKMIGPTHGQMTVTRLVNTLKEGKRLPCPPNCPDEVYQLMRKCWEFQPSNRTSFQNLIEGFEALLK

[40] = molecular target: Glycogen synthase kinase-3 beta (Homo sapiens, UniProt P49841); experiment: Inhibition of GSK3beta (unknown origin) after 60 mins
[41] = molecular target: Fibroblast growth factor receptor 3 (Homo sapiens, UniProt P22607); experiment: Inhibition of FGFR3 (unknown origin) after 60 mins
[42] = molecular target: Fibroblast growth factor receptor 4 (Homo sapiens, UniProt P22455); experiment: Inhibition of FGFR4 (unknown origin) after 60 mins
[43] = molecular target: Fibroblast growth factor receptor 2 (Homo sapiens, UniProt P21802); experiment: Inhibition of FGFR2 (unknown origin) after 60 mins
[44] = molecular target: Cyclin-dependent kinase 4 (Homo sapiens, UniProt P11802); experiment: Inhibition of CDK4 (unknown origin) after 60 mins
Rhesus monkey = experiment: Cardiotoxicity in monkey assessed as QTc prolongation; assay type: toxicity, organism-based, Macaca mulatta; conditions: in vivo
Canis familiaris = organism: Canis familiaris; experiment: Cardiotoxicity in dog assessed as QTc prolongation; assay type: toxicity, organism-based, Canis lupus familiaris; conditions: in vivo
[45] = Plasma clearance in cynomolgus monkey at 5 mg/kg, iv; assay type: ADME, organism-based, Macaca fascicularis; parameters: dose 5 mg/kg, route intravenous
[46] = Solubility of the compound […] at pH 6.8; assay type: physicochemical
Cytochrome P450 3A4 = Cytochrome P450 3A4 (Homo sapiens, UniProt P08684); experiment: Inhibition of CYP3A4 in human liver microsomes using midazolam as substrate by LC-MS/MS analysis; assay type: ADME, Microsome
[47] = Intrinsic clearance in mouse liver microsomes; assay type: ADME, Microsome; conditions: read-out: CLH
[48] = Intrinsic clearance in rat liver microsomes; assay type: ADME, Microsome; conditions: read-out: CLH
[49] = molecular target: Hepatocyte growth factor receptor (Homo sapiens, UniProt P08581)
Description: Inhibition of cMET (unknown origin) after 60 mins

BaF3 = experiment: cells; conditions: Mus musculus
in vivo = conditions: Sprague-Dawley, rat, iv, 3 mg/kg

Cc1cc(Nc2ncc(Cl)c(Nc3ccccc3S(=O)(=O)C(C)C)n2)c(OC(C)C)cc1C1CCNCC1 [CERITINIB]
Activity (Rattus norvegicus): Non-toxic
MTD [1]: 5 mg/kg
MTD [2]: 6.25 mg/kg
T/C (NCI-H2228): -100%
T/C (KARPAS-299 [3]): -66%
T/C (KARPAS-299 [4]): -33%
T/C (KARPAS-299 [5]): 74%
bioavailability [6]: 56%
AUC [7]: 76.3 µM·h
Cmax [8]: 1700 nM
Vd [9]: 15 L/kg
AUC [10]: 11.3 µM·h
bioavailability [11]: 119%
Cmax [12]: 1900 nM
half-life [13]: 21 h
Tmax [14]: 1.8 min
clearance [15]: 9.2 mL/min/kg
bioavailability [16]: 66%
Tmax [17]: 7 h
half-life [18]: 9.1 h
AUC [19]: 6.09 µM·h
clearance [20]: 36.8 mL/min/kg
AUC [21]: 2.78 µM·h
half-life [22]: 6.2 h
Vd [23]: 9.7 L/kg
clearance [24]: 26.6 mL/min/kg
AUC [25]: 5.63 µM·h
IC50 [26]: 0.672 µM
IC50 [27]: 4.21 µM
IC50 [28]: 2.86 µM
IC50 [29]: 2.16 µM
IC50 [30]: 3.14 µM
IC50 [31]: 9.7 µM
IC50 [32]: 3.05 µM
IC50 [33]: 1.27 µM
IC50 [34]: 1.14 µM
IC50 [35]: 2.24 µM
IC50 [36]: 0.84 µM
IC50 [37]: 0.56 µM
IC50 [38]: 1.28 µM
IC50 [39]: 3.73 µM
IC50 [40]: > 10 µM
IC50 [41]: 0.43 µM
IC50 [42]: 0.95 µM
IC50 [43]: 0.26 µM
IC50 [44]: 4.72 µM
Activity (Rhesus monkey): Non-toxic
Activity (Canis familiaris): Non-toxic
clearance [45]: 12.8 mL/min/kg
solubility [46]: 24 µM (≈ 13.4 µg/mL)
INH (Cytochrome P450 3A4): 1.5 µM
microsomal CLint [47]: 15 µL/min/mg
microsomal CLint [48]: 10 µL/min/mg
IC50 [49]: 3.17 µM
IC50 (BaF3): 2.48 µM
Cmax (in vivo): 770 nM
